This note sets out measurements from ChEMBL document CHEMBL1158695, “Cytotoxic sterol derivatives from a marine sponge Homaxinella sp” (2005).

Values after ≈ are worked out from the molar mass of the structure shown.

Holding throughout (conditions): read-out: ED50 (the source's name)
The subject of one test is SK-OV-3. The test can be described thus: Cytotoxicity against human SKOV3 cells. It counts as functional.
For test [1], the system named is HCT-15 (human colon cancer). Put plainly: Cytotoxicity against human HCT15 cells.
The test system of the next test is SK-MEL-2. Put plainly: Cytotoxicity against human SK-MEL-2 cells. The test is classed as functional.
The test system of another test is A549. The test can be described thus: Cytotoxicity against human A549 cells. It counts as functional.
The next test relates to XF498. Put plainly: Cytotoxicity against human XF498 cells. The test is classed as functional.

Take `CCCCO[C@@H]1C=C2[C@@H]3CC[C@H]([C@H](C)/C=C/[C@H](CC)C(C)C)[C@@]3(C)CC[C@@H]2[C@@]2(C)CC[C@H](O)C[C@]12O` [HOMAXISTEROL A4]: the EC50 in the test with SK-OV-3 was over 30 µg/mL; in test [1] it was over 30 µg/mL; in the test on SK-MEL-2, over 30 µg/mL; with A549, over 30 µg/mL; in the test on XF498, 34.1 µg/mL (≈ 68.1 µM).
On to `COc1cccc2c1C(=O)c1c(O)c3c(c(O)c1C2=O)C[C@@](O)(C(=O)CO)C[C@@H]3O[C@H]1C[C@H](N)[C@H](O)[C@H](C)O1` [DOXORUBICIN], for which the EC50 with SK-OV-3 was 0.09 µg/mL (≈ 0.166 µM); in test [1], 0.17 µg/mL (≈ 0.313 µM); with SK-MEL-2, 0.04 µg/mL (≈ 0.0736 µM); in the test with A549, 0.11 µg/mL (≈ 0.202 µM); in the test on XF498, 0.07 µg/mL (≈ 0.129 µM).
On the same counts, the results for `CCCCO[C@@H]1C=C2[C@@H]3CC[C@H]([C@H](C)/C=C/[C@H](C)C(C)C)[C@@]3(C)CC[C@@H]2[C@@]2(C)CC[C@H](O)C[C@]12O` [HOMAXISTEROL A3] are 7.85 µg/mL (≈ 16.1 µM), 7.1 µg/mL (≈ 14.6 µM), 6.1 µg/mL (≈ 12.5 µM), 8.42 µg/mL (≈ 17.3 µM) and 5.03 µg/mL (≈ 10.3 µM).
Taken in the same sequence, the figures for `CCCCO[C@@H]1C=C2[C@@H]3CC[C@H]([C@H](C)/C=C/[C@@H](C)C(C)C)[C@@]3(C)CC[C@@H]2[C@@]2(C)CC[C@H](O)C[C@]12O` [HOMAXISTEROL A2] were 4.43 µg/mL (≈ 9.1 µM), 4.4 µg/mL (≈ 9.04 µM), 3.69 µg/mL (≈ 7.58 µM), 6.23 µg/mL (≈ 12.8 µM) and 4.17 µg/mL (≈ 8.57 µM).
On the same counts, the results for `CC(C)[C@@H](C)/C=C/[C@@H](C)[C@H]1CCC2C3=CC(=O)O[C@@]3(O)CC[C@@]21C` (stereo not given in full) [DEMETHYLINCISTEROL A3] are 1.97 µg/mL (≈ 5.93 µM), 1.39 µg/mL (≈ 4.18 µM), 1.3 µg/mL (≈ 3.91 µM), 1.62 µg/mL (≈ 4.87 µM) and 1.14 µg/mL (≈ 3.43 µM).
For `CC(C)[C@H](C)/C=C/[C@@H](C)[C@H]1CCC2C3=CC(=O)O[C@@]3(O)CC[C@@]21C` (stereo not given in full) [DEMETHYLINCISTEROL A2], the EC50 in the test on SK-OV-3 turned out to be 1.49 µg/mL (≈ 4.48 µM); in test [1], 1.28 µg/mL (≈ 3.85 µM); in the test on SK-MEL-2, 1.21 µg/mL (≈ 3.64 µM); in the test on A549, 1.51 µg/mL (≈ 4.54 µM); with XF498 it was 0.93 µg/mL (≈ 2.8 µM).
On the same counts, the results for `CC(C)C/C=C/[C@@H](C)[C@H]1CCC2C3=CC(=O)O[C@@]3(O)CC[C@@]21C` (stereo not given in full) [DEMETHYLINCISTEROL A1] are 1.7 µg/mL (≈ 5.34 µM), 1.42 µg/mL (≈ 4.46 µM), 1.94 µg/mL (≈ 6.09 µM), 2.79 µg/mL (≈ 8.76 µM) and 1.08 µg/mL (≈ 3.39 µM).
In the case of `CC[C@@H](/C=C/[C@@H](C)[C@H]1CCC2C3=CC(=O)O[C@@]3(O)CC[C@@]21C)C(C)C` (stereo not given in full) [DEMETHYLINCISTEROL A4], the EC50 turned out to be 0.79 µg/mL (≈ 2.28 µM) in the test on SK-OV-3; 0.65 µg/mL (≈ 1.88 µM) in test [1]; 0.55 µg/mL (≈ 1.59 µM) in the test with SK-MEL-2; 0.92 µg/mL (≈ 2.66 µM) in the test with A549; 0.68 µg/mL (≈ 1.96 µM) with XF498.
Consider `CCCCO[C@@H]1C=C2[C@@H]3CC[C@H]([C@H](C)/C=C/CC(C)C)[C@@]3(C)CC[C@@H]2[C@@]2(C)CC[C@H](O)C[C@]12O` [HOMAXISTEROL A1], for which the EC50 came to 7.57 µg/mL (≈ 16 µM) in the test on SK-OV-3; 7.62 µg/mL (≈ 16.1 µM) in test [1]; 6.88 µg/mL (≈ 14.6 µM) in the test on SK-MEL-2; 8.54 µg/mL (≈ 18.1 µM) in the test with A549; 6.33 µg/mL (≈ 13.4 µM) with XF498.
